Tests used:
Assay in all cases: relative viability (nuclei count vs DMSO), 5 days (fraction); higher = more cells survive
[1] = compound: O=c1ncccn1[C@@H]1O[C@H](CO)[C@@H](O)[C@H]1O [Zebularine] + C[C@@H](Oc1cc(-c2cnn(C3CCNCC3)c2)cnc1N)c1c(Cl)ccc(F)c1Cl [Crizotinib] (partner 1 µM)
Summary of the method: (§1)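 Dosing by pin tool came one day after lung cancer cell lines were seeded in 1536-well plates, using either one drug or a fixed anchor-drug dose plus five library-drug doses (not always all listed) in √10 steps. After 5 days, nuclei were counted on 4× images. Relative viability is treated-well nuclei count divided by vehicle-well nuclei count, and values are medians of duplicate plates.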

[2] = compound: O=c1ncccn1[C@@H]1O[C@H](CO)[C@@H](O)[C@H]1O [Zebularine] + CC(=O)Nc1cccc(-n2c(=O)n(C3CC3)c(=O)c3c(Nc4ccc(I)cc4F)n(C)c(=O)c(C)c32)c1 [Trametinib] (partner 0.02 µM)
Summary of the method: as §1

[3] = compound: CC(C)CCN1c2nc(Nc3cc(F)c(O)c(F)c3)ncc2N(C)C(=O)C1C [BI-D1870] + O=C(c1cc(Cc2n[nH]c(=O)c3ccccc23)ccc1F)N1CCN(C(=O)C2CC2)CC1 [Olaparib] (partner 8 µM)
Summary of the method: as §1

[4] = compound: O=c1ncccn1[C@@H]1O[C@H](CO)[C@@H](O)[C@H]1O [Zebularine] + COc1cccc2cc(-c3nc([C@H]4CC[C@H](C(=O)O)CC4)n4ncnc(N)c34)[nH]c12 [OSI-027] (partner 0.5 µM)
Summary of the method: as §1

| Cell Line | relative viability ([1]; first compound 1 µM) | relative viability ([1]; first compound 3.162 µM) | relative viability ([1]; first compound 31.62 µM) | relative viability ([1]; first compound 100 µM) | relative viability ([2]; first compound 1 µM) | relative viability ([2]; first compound 3.162 µM) | relative viability ([2]; first compound 31.62 µM) | relative viability ([2]; first compound 100 µM) | relative viability ([3]; first compound 0.04 µM) | relative viability ([3]; first compound 0.1265 µM) | relative viability ([3]; first compound 0.4 µM) | relative viability ([3]; first compound 1.265 µM) | relative viability ([3]; first compound 4 µM) | relative viability ([4]; first compound 1 µM) | relative viability ([4]; first compound 3.162 µM) | relative viability ([4]; first compound 10 µM) | relative viability ([4]; first compound 31.62 µM) | relative viability ([4]; first compound 100 µM) | relative viability ([1]; first compound 10 µM) | relative viability ([2]; first compound 10 µM) |
| --- | --- | --- | --- | --- | --- | --- | --- | --- | --- | --- | --- | --- | --- | --- | --- | --- | --- | --- | --- | --- |
| NCI-H23 | 0.482 | 0.559 | 0.456 | 0.5 | 0.486 | 0.443 | 0.405 | 0.412 | 0.307 | 0.263 | 0.294 | 0.301 | 0.212 | 0.674 | 0.55 | 0.368 | 0.628 | 0.518 | – | – |
| LCLC-97TM1 | 0.355 | 0.291 | 0.121 | 0.12 | 0.223 | 0.209 | 0.188 | 0.174 | 0.521 | 0.33 | 0.38 | 0.634 | 0.301 | 0.572 | 0.533 | 0.258 | 0.198 | 0.213 | 0.145 | 0.128 |
| EPLC-272H | 0.969 | – | 0.839 | 0.685 | 0.348 | – | 0.223 | 0.352 | 0.692 | 0.804 | 0.692 | 0.381 | 0.204 | 0.279 | 0.213 | 0.312 | 0.324 | 0.27 | – | 0.258 |
| NCI-H1915 | 1.18 | 0.911 | 0.926 | 0.698 | 0.315 | 0.31 | 0.319 | 0.287 | 0.249 | 0.24 | 0.267 | 0.206 | 0.146 | 0.672 | 0.548 | – | 0.622 | 0.486 | 0.649 | 0.322 |
| NCI-H2405 | 0.845 | 0.825 | 0.846 | 0.56 | 0.602 | 0.602 | 0.683 | 0.532 | 0.874 | 0.826 | 0.89 | 0.802 | 0.814 | 0.672 | 0.597 | 0.592 | 0.676 | 0.547 | 0.621 | 0.516 |
| NCI-H322M | 0.969 | 0.897 | 0.821 | 0.523 | 0.489 | 0.515 | 0.551 | 0.509 | 0.736 | 0.75 | 0.713 | 0.735 | 0.624 | 0.524 | 0.531 | 0.47 | 0.5 | 0.521 | 0.804 | 0.481 |
| NCI-H2170 | 1.31 | 1.13 | 0.981 | 0.517 | 0.931 | 0.919 | 0.874 | 0.441 | 0.707 | 0.605 | 0.575 | 0.587 | 0.448 | 0.86 | 0.63 | 0.569 | 0.678 | 0.432 | 0.7 | 0.677 |
| NCI-H358 | 0.618 | 0.475 | 0.387 | 0.252 | 0.146 | 0.134 | 0.145 | 0.113 | 0.685 | 0.548 | 0.592 | 0.485 | 0.35 | 0.862 | 0.474 | 0.378 | 0.286 | 0.177 | 0.237 | 0.117 |
| NCI-H838 | 0.93 | 0.838 | 0.65 | 0.3 | 0.58 | 0.537 | 0.437 | 0.231 | 0.792 | 0.719 | 0.74 | 0.855 | 0.663 | 0.405 | 0.377 | 0.355 | 0.348 | 0.258 | 0.493 | 0.415 |
| CAL-12T | 0.657 | 0.596 | 0.719 | 0.574 | 0.381 | 0.338 | 0.328 | 0.319 | 0.692 | 0.701 | 0.672 | 0.482 | 0.372 | 0.816 | 0.552 | 0.387 | 0.688 | 0.542 | – | 0.309 |
